This is an account of results in paper PMC8716319 (Toxicology, 2020).

Series [1] is described as follows: Stability of alpha-dicarbonyl metabolites under reaction conditions. Particulars: low (50 μM) and high (500 μM) concentrations; student's t-test p < 0.05. The format is in vitro ADME.
Series [2] deals with T1, microsomal epoxide hydrolase (Homo sapiens, UniProt P07099).
T1 sequence (P07099 1-455): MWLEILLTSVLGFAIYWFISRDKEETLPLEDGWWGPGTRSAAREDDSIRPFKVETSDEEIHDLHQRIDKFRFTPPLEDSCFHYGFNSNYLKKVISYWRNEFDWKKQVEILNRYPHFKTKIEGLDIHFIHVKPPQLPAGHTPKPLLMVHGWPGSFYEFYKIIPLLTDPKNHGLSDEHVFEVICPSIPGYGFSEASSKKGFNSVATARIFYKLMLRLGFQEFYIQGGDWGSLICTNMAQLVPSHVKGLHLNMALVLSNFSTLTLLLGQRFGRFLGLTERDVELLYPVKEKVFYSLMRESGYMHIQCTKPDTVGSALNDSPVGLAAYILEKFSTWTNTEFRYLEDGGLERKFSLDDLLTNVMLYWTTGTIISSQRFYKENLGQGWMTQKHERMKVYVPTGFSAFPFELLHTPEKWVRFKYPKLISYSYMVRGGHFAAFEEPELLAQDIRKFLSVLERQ
The format is in vitro ADME. Particulars: 1 μM elaidamide; 40 and 400 μM substrate; HLM.

Take `O=CC=O` [glyoxal]: the “depletion under reaction conditions” value in series [1] was “no significant depletion”.

Turning to `CC(=O)C=O` [methylglyoxal], the “depletion under reaction conditions” value in series [1] was “only significant depletion after 60 min”.

Turning to `CN1C(C(=O)Nc2nccs2)=C(O)c2ccccc2S1(=O)=O` [sudoxicam, N-(2-thiazolyl)-4-hydroxy-2-methyl-2H-1,2-benzothiazine-3-carboxamide 1,1-dioxide], the “inhibition of alpha-dicarbonyl formation by elaidamide” value in series [2] was 90%.
